Measurements published in patent US20230085307A1, “PYRIDAZINONE COMPOUND AND HERBICIDE” (NISSAN CHEMICAL CORPORATION, priority 2019, published 2023).

Assays:
Italian ryegrass [1] = experiment: Test Example 4: herbicidal effect by soil treatment (Table 19, symbol K); format: in vivo, Italian ryegrass (Lolium multiflorum); conditions: amount of applied herbicide 320 g/ha
Method in brief: (§1)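 Soil-surface application: an emulsion agent diluted with water to the predetermined dose is sprayed uniformly over seeds lying under roughly 1.5 cm of sterilized diluvial soil. Boxes stay in a greenhouse at 25° C. to 30° C. Three weeks later, each species is graded on previously defined criteria.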

green foxtail [2] = experiment: Test Example 5: herbicidal effect by foliage application, plastic box (Table 20, symbol G); format: in vivo, green foxtail (Setaria viridis); conditions: foliage application, 320 g/ha, evaluated three weeks after application
Method in brief: (§2)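 Sow seeds spot-wise in sterilized diluvial soil; cover with ~1.5 cm soil. Grow 14 days in greenhouse, 25° C. to 30° C. Spray foliage with emulsion diluted to predetermined amount. Rate effect after 3 weeks.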

velvetleaf [3] = experiment: Test Example 5: herbicidal effect by foliage application, plastic box (Table 20, symbol M); format: in vivo, velvetleaf (Abutilon theophrasti); conditions: foliage application, 320 g/ha, evaluated three weeks after application
Method in brief: as §2

chickweed [4] = experiment: Test Example 5: herbicidal effect by foliage application, plastic box (Table 20, symbol P); format: in vivo, common chickweed (Stellaria media); conditions: foliage application, 320 g/ha, evaluated three weeks after application
Method in brief: as §2

wild oat [5] = experiment: Test Example 4: herbicidal effect by soil treatment (Table 19, symbol I); format: in vivo, wild oat (Avena fatua); conditions: amount of applied herbicide 320 g/ha
Method in brief: as §1

barnyard grass [6] = experiment: Test Example 5: herbicidal effect by foliage application, plastic box (Table 20, symbol H); format: in vivo, barnyard grass (Echinochloa crus-galli); conditions: foliage application, 320 g/ha, evaluated three weeks after application
Method in brief: as §2

barnyard grass [7] = experiment: Test Example 3: herbicidal effect by foliage application, Wagner pot (Table 18, symbol H); format: in vivo, barnyard grass (Echinochloa crus-galli); conditions: amount of applied herbicide 320 g/ha
Method in brief: (§3)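 Plants were sown in alluvial soil held under 0.1–0.5 cm standing water and grown 14 days in a greenhouse at 25–30 °C. An emulsifiable formulation, water-diluted to the set dose, was then sprayed onto the foliage, and effects were scored three weeks later using previously defined criteria.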

redroot pigweed [8] = experiment: Test Example 5: herbicidal effect by foliage application, plastic box (Table 20, symbol N); format: in vivo, redroot pigweed (Amaranthus retroflexus); conditions: foliage application, 320 g/ha, evaluated three weeks after application
Method in brief: as §2

windgrass [9] = experiment: Test Example 4: herbicidal effect by soil treatment (Table 19, symbol L); format: in vivo, windgrass (Apera spica-venti); conditions: amount of applied herbicide 320 g/ha
Method in brief: as §1

redroot pigweed [10] = experiment: Test Example 4: herbicidal effect by soil treatment (Table 19, symbol N); format: in vivo, redroot pigweed (Amaranthus retroflexus); conditions: amount of applied herbicide 320 g/ha
Method in brief: as §1

persian speedwell [11] = experiment: Test Example 4: herbicidal effect by soil treatment (Table 19, symbol R); format: in vivo, Persian speedwell (Veronica persica); conditions: amount of applied herbicide 320 g/ha
Method in brief: as §1

chickweed [12] = experiment: Test Example 4: herbicidal effect by soil treatment (Table 19, symbol P); format: in vivo, common chickweed (Stellaria media); conditions: amount of applied herbicide 320 g/ha
Method in brief: as §1

late watergrass = experiment: Test Example 1: herbicidal activity, application before weed generation under submerged conditions (Table 16, symbol A); format: in vivo, late watergrass (Echinochloa oryzicola); conditions: 320 g/ha applied herbicide
Method in brief: (§4)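 Submerged Wagner pots (alluvial soil, 4 cm water) sown with weed seeds and planted with 2.5-leaf rice seedlings; emulsifiable concentrate diluted in water applied to water surface on sowing day. Held in greenhouse at 25-30 °C; injury scored 0-5 by herbicidal rate after three weeks.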

southern crabgrass [13] = experiment: Test Example 4: herbicidal effect by soil treatment (Table 19, symbol F); format: in vivo, southern crabgrass (Digitaria ciliaris); conditions: amount of applied herbicide 320 g/ha
Method in brief: as §1

velvetleaf [14] = experiment: Test Example 4: herbicidal effect by soil treatment (Table 19, symbol M); format: in vivo, velvetleaf (Abutilon theophrasti); conditions: amount of applied herbicide 320 g/ha
Method in brief: as §1

wild oat [15] = experiment: Test Example 5: herbicidal effect by foliage application, plastic box (Table 20, symbol I); format: in vivo, wild oat (Avena fatua); conditions: foliage application, 320 g/ha, evaluated three weeks after application
Method in brief: as §2

blackgrass [16] = experiment: Test Example 4: herbicidal effect by soil treatment (Table 19, symbol J); format: in vivo, blackgrass (Alopecurus myosuroides); conditions: amount of applied herbicide 320 g/ha
Method in brief: as §1

windgrass [17] = experiment: Test Example 5: herbicidal effect by foliage application, plastic box (Table 20, symbol L); format: in vivo, windgrass (Apera spica-venti); conditions: foliage application, 320 g/ha, evaluated three weeks after application
Method in brief: as §2

lambsquarters [18] = experiment: Test Example 4: herbicidal effect by soil treatment (Table 19, symbol O); format: in vivo, lambsquarters (Chenopodium album); conditions: amount of applied herbicide 320 g/ha
Method in brief: as §1

lambsquarters [19] = experiment: Test Example 5: herbicidal effect by foliage application, plastic box (Table 20, symbol O); format: in vivo, lambsquarters (Chenopodium album); conditions: foliage application, 320 g/ha, evaluated three weeks after application
Method in brief: as §2

persian speedwell [20] = experiment: Test Example 5: herbicidal effect by foliage application, plastic box (Table 20, symbol R); format: in vivo, Persian speedwell (Veronica persica); conditions: foliage application, 320 g/ha, evaluated three weeks after application
Method in brief: as §2

green foxtail [21] = experiment: Test Example 4: herbicidal effect by soil treatment (Table 19, symbol G); format: in vivo, green foxtail (Setaria viridis); conditions: amount of applied herbicide 320 g/ha
Method in brief: as §1

rice flat sedge = experiment: Test Example 3: herbicidal effect by foliage application, Wagner pot (Table 18, symbol E); format: in vivo, rice flat sedge (Cyperus iria); conditions: amount of applied herbicide 320 g/ha
Method in brief: as §3

blackgrass [22] = experiment: Test Example 5: herbicidal effect by foliage application, plastic box (Table 20, symbol J); format: in vivo, blackgrass (Alopecurus myosuroides); conditions: foliage application, 320 g/ha, evaluated three weeks after application
Method in brief: as §2

barnyard grass [23] = experiment: Test Example 4: herbicidal effect by soil treatment (Table 19, symbol H); format: in vivo, barnyard grass (Echinochloa crus-galli); conditions: amount of applied herbicide 320 g/ha
Method in brief: as §1

Italian ryegrass [24] = experiment: Test Example 5: herbicidal effect by foliage application, plastic box (Table 20, symbol K); format: in vivo, Italian ryegrass (Lolium multiflorum); conditions: foliage application, 320 g/ha, evaluated three weeks after application
Method in brief: as §2

southern crabgrass [25] = experiment: Test Example 5: herbicidal effect by foliage application, plastic box (Table 20, symbol F); format: in vivo, southern crabgrass (Digitaria ciliaris); conditions: foliage application, 320 g/ha, evaluated three weeks after application
Method in brief: as §2

oval-leafed pondweed = experiment: Test Example 1: herbicidal activity, application before weed generation under submerged conditions (Table 16, symbol C); format: in vivo, oval-leafed pondweed (Monochoria vaginalis); conditions: 320 g/ha applied herbicide
Method in brief: as §4

Japanese bulrush = experiment: Test Example 1: herbicidal activity, application before weed generation under submerged conditions (Table 16, symbol B); format: in vivo, Japanese bulrush (Schoenoplectus juncoides); conditions: 320 g/ha applied herbicide
Method in brief: as §4

Chinese sprangletop = experiment: Test Example 3: herbicidal effect by foliage application, Wagner pot (Table 18, symbol D); format: in vivo, chinese sprangletop (Leptochloa chinensis); conditions: amount of applied herbicide 320 g/ha
Method in brief: as §3

`COc1cc(F)ccc1-c1sc2ccc(NS(C)(=O)=O)cc2c1-c1c(O)c(C)nn(C)c1=O` [2-183] was tested, and the “K: Italian ryegrass, herbicidal effect rating” value (Italian ryegrass [1]) was 0 (Herbicidal rate of 5% or less (almost no effect)), the “herbicidal effect on G: green foxtail (criteria 0-5)” value (green foxtail [2]) was 0 (Herbicidal rate of 5% or less (almost no effect)) and the “herbicidal effect on M: velvetleaf (criteria 0-5)” value (velvetleaf [3]) was 1 (Herbicidal rate of 5% or more and less than 20%). The “herbicidal effect on P: chickweed (criteria 0-5)” value (chickweed [4]) was 4 (Herbicidal rate of 70% or more and less than 90%), the “I: wild oat, herbicidal effect rating” value (wild oat [5]) was 0 (Herbicidal rate of 5% or less (almost no effect)) and the “herbicidal effect on H: barnyard grass (criteria 0-5)” value (barnyard grass [6]) was 0 (Herbicidal rate of 5% or less (almost no effect)). For the same compound, the “herbicidal effect on H: barnyard grass” value (barnyard grass [7]) was 4 (Herbicidal rate of 70% or more and less than 90%), the “herbicidal effect on N: redroot pigweed (criteria 0-5)” value (redroot pigweed [8]) was 1 (Herbicidal rate of 5% or more and less than 20%) and the “L: windgrass, herbicidal effect rating” value (windgrass [9]) was 0 (Herbicidal rate of 5% or less (almost no effect)). For the same compound, the “N: redroot pigweed, herbicidal effect rating” value (redroot pigweed [10]) was 0 (Herbicidal rate of 5% or less (almost no effect)), the “R: persian speedwell, herbicidal effect rating” value (persian speedwell [11]) was 3 (Herbicidal rate of 40% or more and less than 70%) and the “P: chickweed, herbicidal effect rating” value (chickweed [12]) was 3 (Herbicidal rate of 40% or more and less than 70%). The “Herbicidal effect on A: late watergrass (grade 0-5)” value (late watergrass) was 2 (Herbicidal rate of 20% or more and less than 40%), the “F: southern crabgrass, herbicidal effect rating” value (southern crabgrass [13]) was 0 (Herbicidal rate of 5% or less (almost no effect)) and the “M: velvetleaf, herbicidal effect rating” value (velvetleaf [14]) was 0 (Herbicidal rate of 5% or less (almost no effect)). The “herbicidal effect on I: wild oat (criteria 0-5)” value (wild oat [15]) was 0 (Herbicidal rate of 5% or less (almost no effect)), the “J: blackgrass, herbicidal effect rating” value (blackgrass [16]) was 0 (Herbicidal rate of 5% or less (almost no effect)) and the “herbicidal effect on L: windgrass (criteria 0-5)” value (windgrass [17]) was 3 (Herbicidal rate of 40% or more and less than 70%). The “O: lambsquarters, herbicidal effect rating” value (lambsquarters [18]) was 0 (Herbicidal rate of 5% or less (almost no effect)), the “herbicidal effect on O: lambsquarters (criteria 0-5)” value (lambsquarters [19]) was 3 (Herbicidal rate of 40% or more and less than 70%) and the “herbicidal effect on R: persian speedwell (criteria 0-5)” value (persian speedwell [20]) was 4 (Herbicidal rate of 70% or more and less than 90%). The “G: green foxtail, herbicidal effect rating” value (green foxtail [21]) was 0 (Herbicidal rate of 5% or less (almost no effect)), the “herbicidal effect on E: rice flat sedge” value (rice flat sedge) was 0 (Herbicidal rate of 5% or less (almost no effect)) and the “herbicidal effect on J: blackgrass (criteria 0-5)” value (blackgrass [22]) was 4 (Herbicidal rate of 70% or more and less than 90%). The “H: barnyard grass, herbicidal effect rating” value (barnyard grass [23]) was 0 (Herbicidal rate of 5% or less (almost no effect)), the “herbicidal effect on K: Italian ryegrass (criteria 0-5)” value (Italian ryegrass [24]) was 0 (Herbicidal rate of 5% or less (almost no effect)) and the “herbicidal effect on F: southern crabgrass (criteria 0-5)” value (southern crabgrass [25]) was 0 (Herbicidal rate of 5% or less (almost no effect)). The “Herbicidal effect on C: oval-leafed pondweed (grade 0-5)” value (oval-leafed pondweed) was 0 (Herbicidal rate of 5% or less (almost no effect)), the “Herbicidal effect on B: Japanese bulrush (grade 0-5)” value (Japanese bulrush) was 0 (Herbicidal rate of 5% or less (almost no effect)) and the “herbicidal effect on D: Chinese sprangletop” value (Chinese sprangletop) was 3 (Herbicidal rate of 40% or more and less than 70%).
